# Reference: patent US9540702B2, “Stabilization of enzymes with stable coenzymes” (Roche Diabetes Care, Inc., priority 2009, dated 2017)
# What was measured:
# [1] = molecular target: glucose dehydrogenase (GlucDH) (Bacillus subtilis, UniProt P12310); experiment: Reaction kinetics, function curve and dry blank value of GlucDH/coenzyme formulations after warm, humid storage; type: biochemical
# Experimental: (§1) carbaNAD (FIG. 1A) or NAD were added to the glucose-specific GlucDH. These formulations were each applied to Pokalon foils (Lonza) and, after drying, stored under warm and humid conditions (32° C., 85% relative air humidity). Subsequently, the reaction kinetics and the function curve were determined at regular intervals. In parallel at each of the measurement times a cNAD/NAD analysis and a determination of the residual activity of the enzyme were carried out.
# However, a significant difference in the kinetics curves can be seen after 5 weeks.
# There is also a considerable difference in the blank values (dry blank value before application of a blood sample) as shown in FIG. 3.
# The different stability of glucose dehydrogenase in the presence of NAD or cNAD is also evident from a comparison of FIGS. 4 and 5. […] In this connection it is clear that the function of the enzyme is only slightly changed at high glucose concentrations over the entire period and approximately corresponds after 24 weeks to the value obtained after 5 weeks.
# diaphorase = experiment: Enzyme activity in test strips stored up to 18 weeks (Table 7); type: biochemical
# Experimental: In order to evaluate the stabilization of glucose dehydrogenase and diaphorase by carbaNAD, a number of test strips were prepared in analogy to Example 5.
# The test strips were stored over a period of 18 weeks at temperatures of 5° C. (KS, refrigerator), 25° C. (RT), 30° C. (GT), 35° C. (DT) and 45° C. (HT), and the enzyme activity in the test strips was determined at the start of storage (0 weeks), after 6 weeks, after 9 weeks, after 12 weeks and after 18 weeks. The results are shown in Table 6 (glucose dehydrogenase) and in Table 7 (diaphorase).
# [2] = molecular target: GlucDH_E170K_K252L (GlucDH-mut2) (Bacillus subtilis, UniProt P12310, A229V/A236S/E170K/Q252L); experiment: Residual activity of GlucDH mutant 2 after storage with coenzyme; type: biochemical; conditions: 24 weeks at 32° C. and 85% relative air humidity
# Experimental: as §1
# If a mutant is used instead of the wild-type enzyme (from Bacillus subtilis), it is possible to further increase the residual activity of GlucDH. After 24 weeks storage at 32° C. and 85% relative air humidity in the presence of cNAD, the residual activity of a mutant GlucDH_E96G_E170K with the amino acid substitutions glutamic acid→glycine at position 96 and glutamic acid→lysine at position 170 (GlucDH-mut1) of the wild-type enzyme is about 70%, whereas the residual activity of a mutant GlucDH_E170K_K252L with the amino acid substitutions glutamic acid→lysine at position 170 and lysine→leucine at position 252 (GlucDH-mut2) is about 50% (FIG. 8).
# [3] = molecular target: T1, alcohol dehydrogenase (ADH) (Saccharomyces cerevisiae, UniProt P00330); experiment: Storage of alcohol dehydrogenase detection solution with NAD or cNAD (Tables 1 and 2); type: biochemical, yeast
# T1 sequence (P00330 1-348): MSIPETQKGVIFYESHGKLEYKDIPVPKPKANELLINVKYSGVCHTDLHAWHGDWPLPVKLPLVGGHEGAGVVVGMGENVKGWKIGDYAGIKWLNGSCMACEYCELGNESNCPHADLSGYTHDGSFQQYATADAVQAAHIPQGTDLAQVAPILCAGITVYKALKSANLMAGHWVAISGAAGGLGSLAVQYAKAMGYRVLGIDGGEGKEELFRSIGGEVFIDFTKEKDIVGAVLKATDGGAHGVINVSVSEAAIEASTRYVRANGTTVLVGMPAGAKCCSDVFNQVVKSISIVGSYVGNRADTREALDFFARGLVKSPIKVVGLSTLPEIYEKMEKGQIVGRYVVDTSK
# Experimental: cNAD or NAD was added to a detection solution containing alcohol dehydrogenase. These mixtures were stored at 2-8° C. and at 35° C. Subsequently, the stability of alcohol dehydrogenase (ADH) was checked at regular intervals and the residual activity of the enzyme was determined.
# If alcohol dehydrogenase is stored together with native NAD or with cNAD for several months at 2-8° C. in a refrigerator, then one observes in the case of […] a considerable decrease in enzyme activity over the entire storage period. Whereas the difference after 2 weeks storage is still slight, there is an approximately 20% higher residual activity of alcohol dehydrogenase after 12 months storage in the presence of 16 mM cNAD compared to a corresponding solution containing 16 mM NAD as the coenzyme.
# Accordingly, the residual activity of alcohol dehydrogenase can be increased somewhat in samples that have been stored for 2 weeks at 2-8° C. by increasing the concentration of cNAD.
# [4] = molecular target: L lactate dehydrogenase (from rabbit) (Oryctolagus cuniculus, UniProt P13491); experiment: DSC of coenzyme binding; conditions: 3.8 mM ligand; 0.1 M Tris buffer, pH 8.5
# [5] = molecular target: glucose dehydrogenase (wild-type) (Bacillus subtilis, UniProt P12310); experiment: DSC of coenzyme binding; conditions: 3.8 mM ligand; 0.1 M Tris buffer, pH 8.5
# [6] = Residual content of coenzyme in glucose detection reagent after storage at 32° C. and 85% relative air humidity; type: physicochemical; conditions: 24 weeks storage at 32° C. and 85% relative air humidity
# Experimental: as §1
# According to this the residual content of cNAD in a glucose detection reagent is still about 80% of the initial value after 24 weeks storage (at 32° C. and 85% relative air humidity), whereas the content of NAD in a glucose detection reagent stabilized with NAD is already reduced to about 35% of the initial value after 5 weeks and, by extrapolation, is reduced to zero after about 17 weeks.
# [7] = 16 mmol/l coenzyme, initial value
structure (smiles),measurement,setting,value
NC(=O)c1ccc[n+]([C@@H]2C[C@H](COP(=O)([O-])OP(=O)(O)OC[C@H]3O[C@@H](n4cnc5c(N)ncnc54)[C@H](O)[C@@H]3O)[C@@H](O)[C@H]2O)c1 [carbaNAD],function curve of GlucDH,[1]; after 5 weeks at 32° C. and 85% air humidity,still lies within the set of curves of the previous measurements
same,kinetics curves of GlucDH,[1]; after 5 weeks at 32° C. and 85% relative air humidity,remains virtually unchanged
same,dry blank value before application of a blood sample,[1]; up to 5 weeks at 32° C. and 85% air humidity,does not occur
same,"Enzyme activity, diaphorase",diaphorase; 0 weeks (start of storage),4.6 U/cm^2
same,"Enzyme activity, diaphorase","diaphorase; DT (35° C.), 6 weeks",3.4 U/cm^2
same,"Enzyme activity, diaphorase","diaphorase; DT (35° C.), 9 weeks",4.4 U/cm^2
same,"Enzyme activity, diaphorase","diaphorase; DT (35° C.), 12 weeks",4.0 U/cm^2
same,"Enzyme activity, diaphorase","diaphorase; DT (35° C.), 18 weeks",5.3 U/cm^2
same,"Enzyme activity, diaphorase","diaphorase; GT (30° C.), 12 weeks",4.3 U/cm^2
same,"Enzyme activity, diaphorase","diaphorase; GT (30° C.), 18 weeks",6.2 U/cm^2
same,"Enzyme activity, diaphorase","diaphorase; HT (45° C.), 6 weeks",3.9 U/cm^2
same,"Enzyme activity, diaphorase","diaphorase; HT (45° C.), 9 weeks",3.8 U/cm^2
same,"Enzyme activity, diaphorase","diaphorase; KS (5° C.), 6 weeks",4.4 U/cm^2
same,"Enzyme activity, diaphorase","diaphorase; KS (5° C.), 9 weeks",5.2 U/cm^2
same,"Enzyme activity, diaphorase","diaphorase; KS (5° C.), 12 weeks",4.8 U/cm^2
same,"Enzyme activity, diaphorase","diaphorase; KS (5° C.), 18 weeks",7.0 U/cm^2
same,"Enzyme activity, diaphorase","diaphorase; RT (25° C.), 6 weeks",4.5 U/cm^2
same,"Enzyme activity, diaphorase","diaphorase; RT (25° C.), 9 weeks",5.1 U/cm^2
same,"Enzyme activity, diaphorase","diaphorase; RT (25° C.), 12 weeks",4.6 U/cm^2
same,"Enzyme activity, diaphorase","diaphorase; RT (25° C.), 18 weeks",6.7 U/cm^2
same,residual activity of GlucDH-mut2,[2],about 50%
same,ADH activity after 2 weeks at 2-8° C.,"[3]; 16 mmol/l coenzyme, 2 weeks at 2-8° C.",100.7 % of initial value
same,ADH activity after 3 months at 2-8° C.,"[3]; 16 mmol/l coenzyme, 3 months at 2-8° C.",91.3 % of initial value
same,ADH activity after 7.5 months at 2-8° C.,"[3]; 16 mmol/l coenzyme, 7.5 months at 2-8° C.",95.6 % of initial value
same,ADH activity after 10 months at 2-8° C.,"[3]; 16 mmol/l coenzyme, 10 months at 2-8° C.",88.2 % of initial value
same,ADH activity after 12 months at 2-8° C.,"[3]; 16 mmol/l coenzyme, 12 months at 2-8° C.",83.8 % of initial value
same,ADH activity % of weighed amount (initial value),[3]; [7],71.9 % of weighed amount
same,ADH activity U/ml (initial value),[3]; [7],120.2 U/ml
same,higher residual activity of alcohol dehydrogenase compared to 0.5 mM cNAD,"[3]; 2 weeks at 35° C., 15 mM cNAD",approximately 45%
same,higher residual activity of alcohol dehydrogenase compared to 16 mM NAD solution,"[3]; 12 months at 2-8° C., 16 mM cNAD",approximately 20%
same,ADH activity % of weighed amount (initial value),"[3]; Sample 1, pH 7.85, 0.5 mM cNAD",73.7 % of weighed amount
same,ADH activity U/ml (initial value),"[3]; Sample 1, pH 7.85, 0.5 mM cNAD",123.1 U/ml
same,ADH activity after 2 weeks at 2-8° C.,"[3]; Sample 1, pH 7.85, 0.5 mM cNAD",93.8 % of initial value
same,ADH activity after 2 weeks at 35° C.,"[3]; Sample 1, pH 7.85, 0.5 mM cNAD",31.1 % of initial value
same,ADH activity % of weighed amount (initial value),"[3]; Sample 2, pH 7.85, 1 mM cNAD",75.3 % of weighed amount
same,ADH activity U/ml (initial value),"[3]; Sample 2, pH 7.85, 1 mM cNAD",125.8 U/ml
same,ADH activity after 2 weeks at 2-8° C.,"[3]; Sample 2, pH 7.85, 1 mM cNAD",97.7 % of initial value
same,ADH activity after 2 weeks at 35° C.,"[3]; Sample 2, pH 7.85, 1 mM cNAD",45.5 % of initial value
same,ADH activity % of weighed amount (initial value),"[3]; Sample 3, pH 7.85, 5 mM cNAD",74.9 % of weighed amount
same,ADH activity U/ml (initial value),"[3]; Sample 3, pH 7.85, 5 mM cNAD",125.1 U/ml
same,ADH activity after 2 weeks at 2-8° C.,"[3]; Sample 3, pH 7.85, 5 mM cNAD",101.1 % of initial value
same,ADH activity after 2 weeks at 35° C.,"[3]; Sample 3, pH 7.85, 5 mM cNAD",74.1 % of initial value
same,ADH activity % of weighed amount (initial value),"[3]; Sample 4, pH 7.85, 15 mM cNAD",74.1 % of weighed amount
same,ADH activity U/ml (initial value),"[3]; Sample 4, pH 7.85, 15 mM cNAD",123.7 U/ml
same,ADH activity after 2 weeks at 2-8° C.,"[3]; Sample 4, pH 7.85, 15 mM cNAD",104.0 % of initial value
same,ADH activity after 2 weeks at 35° C.,"[3]; Sample 4, pH 7.85, 15 mM cNAD",77.6 % of initial value
same,TM,[4],60.2 °C
same,ΔHcal,[4],66 kcal/mol
same,TM,[5],58.5 °C
same,ΔHcal,[5],84 kcal/mol
same,residual content of coenzyme in glucose detection reagent,[6],about 80 % of the initial value
